The target in one series is T1, IDH1 R132H (Homo sapiens, UniProt O75874, R132H).
T1 construct: purchased BPS Bioscience BPS-79376
The experiment in a line: Mutant IDH1 enzyme assay (diaphorase/resazurin), IDH1 R132H. The series is classed as biochemical. The following applies: for IC50: mean ± SD of at least three determinations. Here is the method:
(§1) The amount of NADPH remaining at the end of the reaction time is measured in a secondary diaphorase/resazurin reaction in which the NADPH is consumed in a 1:1 molar ratio with the conversion of resazurin to the highly fluorescent resorufin. […] For inhibition assays, triplicate samples of the compounds in the concentration range from 10^−5 to 10^−10 M were incubated with the enzyme for 30 min prior to addition of α-KG and NADPH to initiate the reaction. The reaction ran for 60 min at room temperature and was terminated with the addition of 25 μL of Detection Buffer (36 μg/mL diaphorase, […]) to 50 µL of the reaction solution. […] The data were imported into GraphPad Prism 4.1 (GraphPad Inc.; La Jolla; CA, USA), and the IC50 values were calculated with a standard dose–response curve fitting (Figure S3).
A general note: The colour change of resazurin is a common sign of viable cells or microbes.

In the next series the target is T2, wt IDH2 (Homo sapiens, UniProt P48735).
T2 construct: purchased BPS Bioscience
T2 sequence (P48735 40-452): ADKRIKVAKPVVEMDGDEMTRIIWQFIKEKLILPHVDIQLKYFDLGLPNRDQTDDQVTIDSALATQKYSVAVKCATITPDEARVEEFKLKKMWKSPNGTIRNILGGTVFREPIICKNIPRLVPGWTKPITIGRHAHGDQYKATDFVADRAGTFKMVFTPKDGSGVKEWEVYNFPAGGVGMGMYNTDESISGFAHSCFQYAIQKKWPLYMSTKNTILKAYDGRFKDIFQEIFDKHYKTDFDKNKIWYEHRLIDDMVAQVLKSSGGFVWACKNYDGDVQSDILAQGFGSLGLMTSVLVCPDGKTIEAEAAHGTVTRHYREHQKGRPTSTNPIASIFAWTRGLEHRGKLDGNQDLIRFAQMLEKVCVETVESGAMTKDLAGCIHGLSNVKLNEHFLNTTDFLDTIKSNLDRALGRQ
The experiment in a line: wt IDH enzyme assay, wt IDH2. The series is classed as biochemical. The following applies: mean of at least three determinations. The procedure:
(§2) wt IDH enzyme assay is a modified version of the assay used for mIDH1. With the conversion of isocitrate to α-KG, this enzyme stoichiometrically converts NADP to NADPH. The produced NADPH, which directly couples to the diaphorase/resazurin system and the resorufin production, can be measured. The protocols for the determination of inhibition of both wt IDH1 and wt IDH2 were conducted as described by Wang et al.. The wt IDH1 (ab113858) was purchased from abcam (Cambridge, UK), and the wt IDH2, from BPS Bioscience (San Diego, CA, USA).
Assays for wt IDH2 were conducted in 50 µL buffer (20 mM TRIS buffer (pH = 7.5), 150 mM NaCl, 10 mM MgCl2, 0.05% BSA, and 4 mM β-mercaptoethanol) containing 50 µM NADP, 70 µM D/L-isocitrate, and 0.05 µg/mL wt IDH2 enzyme (reaction time 1 h at RT). For inhibition assays, triplicate samples of the compounds in the concentration range from 10^−5 to 10^−10 M were incubated with the wt IDH2 and NADP for 1 h before addition of D/L-isocitrate to initiate the reaction together with the direct detection system comprising 20 µg/mL diaphorase and 4 µM resazurin. The reaction was stopped by addition of 5 μL 10% SDS and read as described above. The data were imported into GraphPad Prism, and the IC50 values were calculated with a standard dose−response curve fitting.

The next series addresses T3, wt IDH1 (Homo sapiens, UniProt O75874).
T3 construct: purchased abcam ab113858
The series can be described thus: wt IDH enzyme assay, wt IDH1. The series is classed as biochemical. Particulars: mean of at least three determinations. Here is the method:
as §2
Briefly, wt IDH1 assays were conducted in 50 µL buffer (20 mM TRIS buffer (pH = 7.5), 150 mM NaCl, 10 mM MgCl2, 0.05% BSA, and 4 mM β-mercaptoethanol) containing 50 µM NADP, 70 µM D/L-isocitrate, and 0.04 µg/mL wt IDH1 enzyme (reaction time 1 h at RT). For inhibition assays, triplicate samples of the compounds in the concentration range from 10^−5 to 10^−10 M were incubated with the wt IDH1 for 1 h before addition of D/L-isocitrate and NADP to initiate the reaction together with the direct detection system comprising 20 µg/mL diaphorase and 4 µM resazurin.

The target of the next series is T4, IDH1 R132C (Homo sapiens, UniProt O75874, R132C).
T4 construct: purchased ActiveMotif ACM-31713
The series can be described thus: Mutant IDH1 enzyme assay (diaphorase/resazurin), IDH1 R132C. The series is classed as biochemical. The following applies: mean ± SD of at least three determinations. The procedure:
as §1

Series [1] in a line: Stability of radiotracer at room temperature in ethanol, saline or DPBS (radio-HPLC). The format is physicochemical. Here is the method:
To a solution of organotin precursor (S)-15 in methanol (50 µL, 1 mg/mL) were successively added [^125I]NaI (10-50 µL, 2.1–15.3 MBq), glacial acetic acid (2.5 µL), and a solution of CAT trihydrate (5 µL, 1 mg/mL). The reaction vial was sealed and stirred at room temperature for 5 min before addition of a solution of Na2S2O5 in deionised water (5 µL, 1 mg/mL). The reaction mixture was purified by semipreparative RP-HPLC. The collected fraction was further diluted with deionised water (10 mL) and passed through a Sep-Pak® Plus Light cartridge (beforehand conditioned successively with 10 mL of deionised water, 10 mL of methanol, and 10 mL of deionised water). The cartridge was washed with deionised water (2 mL) and dried with air before elution of the radioiodinated tracer (S)-[^125I]2 with ethanol (500 µL). The radiotracer was finally formulated in saline or DPBS (pH 7.4) to reach an ethanol content of ca. 5% for stability studies.
The aqueous solution of [^18F]F^− in [^18O]H2O was passed through an anion exchange resin (Sep-Pak® Light Accell Plus QMA carbonate cartridge) preconditioned with 10 mL of ethanol, 10 mL of an aqueous solution of lithium trifluoromethanesulfonate (90 mg/mL), and 10 mL of deionised water. Then, a solution of potassium carbonate (50 µg) and lithium trifluoromethanesulfonate (10 mg) in water (550 µL) was passed through the cartridge to elute the radioactivity to the reactor before addition of anhydrous ACN (1 mL). In such conditions, more than 97% of the radioactivity was usually recovered from the cartridge. The solution was dried by azeotropic distillation under reduced pressure and He flow at 100 °C for 12 min. After cooling to 25 °C, anhydrous DMA (2 mL) was added to the reactor. Then, 200 µL of the resulting solution (40–245 MBq, n = 10) was transferred in a glass vial equipped with a magnetic stirrer before addition of a solution of tetrakis(pyridine)copper(II) triflate (Cu(OTf)2(py)4, 14 mg, 20.6 µmol) in anhydrous DMA (250 µL) and a solution of the tin precursor (S)-15 (6.1 mg, 10.0 µmol) in anhydrous DMA (100 µL). The reaction mixture was stirred at 110 °C for 10 min. After cooling to 25 °C, deionised water (25 mL) was added, and the reaction mixture was passed through a Sep-Pak® C18 Plus Light cartridge preconditioned with 10 mL of deionised water, 10 mL of methanol, and 10 mL of deionised water. The cartridge was washed with deionised water (2 mL) and flushed with air before elution of the desired ^18F-labelled radiotracer with ACN (500 µL). For isolation of the radiotracer, the eluate was subjected to semipreparative RP-HPLC. The collected fraction was diluted with deionised water (25 mL) and passed through a Sep-Pak® C18 Plus Light cartridge preconditioned with 10 mL of deionised water, 10 mL of methanol, and 10 mL of deionised water. The cartridge was washed with deionised water (2 mL) and flushed with air before elution of the final (S)-[^18F]3 radiotracer with ethanol (500–600 µL). The radiotracer was finally formulated in saline or DPBS (pH 7.4) to reach an ethanol content of ca. 5% for stability studies.
(§3) Figure 7 Radioactivity-HPLC chromatograms of the radiotracer (S)-[^125I]2 incubated, for 1, 2, and 3 h post formulation, at room temperature in ethanol, NaCl 0.9% containing 5% ethanol, and DPBS (pH 7.4) containing 5% ethanol, as well as in a mixture of DPBS and mouse serum at 37 °C.
(§4) Figure 8 Radioactivity-HPLC chromatograms of the radiotracer (S)-[^18F]3 incubated, for 0, 1, and 2 h post formulation, at room temperature in ethanol, NaCl 0.9% containing 5% ethanol, and DPBS (pH 7.4) containing 5% ethanol, as well as in a mixture of DPBS and mouse serum at 37 °C.

Series [2] in a line: Stability of radiotracer in mouse serum at 37 °C (radio-HPLC). The series is classed as in vitro ADME. Here is the method: as §3, §4
A further series relates to mIDH1. Particulars: cited from earlier work.
[3] abbreviates: phenyl-glycine scaffold, mixtures of stereoisomers, read-out: IC50 for mIDH1.
The mark [4] stands for this setting: butyl-phenyl sulfonamides, read-out: IC50.

Where two headings read alike, the source gives them in different places.

T4 sequence (O75874 whole entry R132C): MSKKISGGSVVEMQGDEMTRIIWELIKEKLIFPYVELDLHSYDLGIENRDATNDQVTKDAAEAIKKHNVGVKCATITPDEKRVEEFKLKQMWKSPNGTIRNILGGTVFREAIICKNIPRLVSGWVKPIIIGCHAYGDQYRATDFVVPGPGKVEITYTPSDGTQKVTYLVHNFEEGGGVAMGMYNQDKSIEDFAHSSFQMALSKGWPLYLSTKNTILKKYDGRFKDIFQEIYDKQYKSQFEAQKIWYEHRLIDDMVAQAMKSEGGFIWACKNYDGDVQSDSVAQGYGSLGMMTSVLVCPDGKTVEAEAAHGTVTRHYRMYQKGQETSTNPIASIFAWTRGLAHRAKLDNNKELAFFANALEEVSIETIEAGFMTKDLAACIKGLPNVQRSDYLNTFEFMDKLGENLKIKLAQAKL
T3 sequence (O75874 whole entry): as the sequence (O75874 whole entry R132C) above, with C132R counted along it
T1 sequence (O75874 whole entry R132H): as the sequence (O75874 whole entry R132C) above, with C132H counted along it

What is called IC50 is the concentration that gives 50% inhibition. For `C[C@@H](Nc1ccc(C#N)n(C)c1=O)c1cc2cc(I)ccc2[nH]c1=O` [(R)-2, (R)-5-{[1-(6-iodo-2-oxo-1,2-dihydroquinolin-3-yl)ethyl]-amino}-1-methyl-6-oxo-1,6-dihydropyridine-2-carbonitrile], the IC50 against IDH1 R132H was 323 ± 83 nM; against wt IDH2, over 10000 nM; at wt IDH1, over 10000 nM; against IDH1 R132C it was over 10000 nM.

Turning to `C[C@@H](Nc1ccc(C#N)n(C)c1=O)c1cc2cc(F)ccc2[nH]c1=O` [(R)-3, (R)-5-{[1-(6-fluoro-2-oxo-1,2-dihydroquinolin-3-yl)ethyl]-amino}-1-methyl-6-oxo-1,6-dihydropyridine-2-carbonitrile], the IC50 is 698 ± 145 nM against IDH1 R132H, over 10000 nM on wt IDH2, over 10000 nM on wt IDH1 and over 10000 nM against IDH1 R132C.

Take `C[C@H](Nc1ccc(C#N)n(C)c1=O)c1cc2cc(I)ccc2[nH]c1=O` [(S)-2, (S)-5-{[1-(6-iodo-2-oxo-1,2-dihydroquinolin-3-yl)ethyl]-amino}-1-methyl-6-oxo-1,6-dihydropyridine-2-carbonitrile]: the IC50 against IDH1 R132H is 5.23 ± 0.75 nM; at wt IDH2 it was over 10000 nM; at wt IDH1, over 10000 nM; on IDH1 R132C, 160 ± 24 nM.

As for `C[C@H](Nc1ccc(C#N)n(C)c1=O)c1cc2cc(F)ccc2[nH]c1=O` [(S)-3, (S)-5-{[1-(6-fluoro-2-oxo-1,2-dihydroquinolin-3-yl)ethyl]-amino}-1-methyl-6-oxo-1,6-dihydropyridine-2-carbonitrile], on IDH1 R132H (IDH1 R132H), the “decrease of inhibitory potency compared with iodinated compound (S)-2” value is listed as “fourfold”. The IC50 against IDH1 R132H was 22.7 ± 5.2 nM; against wt IDH2 it was over 10000 nM; on wt IDH1, over 10000 nM; on IDH1 R132C, 579 ± 110 nM.

On to `C[C@H](Nc1ccc(C#N)n(C)c1=O)c1cc2cc([18F])ccc2[nH]c1=O` [(S)-[^18F]3], for which the “RCP (stability)” value is reported as over 99% in series [1] (DPBS (pH 7.4) containing 5% ethanol, over 2 h); over 99% in series [1] (NaCl 0.9% containing 5% ethanol, over 2 h); over 99% in series [1] (ethanolic solution from final C18 SPE cartridge, over 2 h); over 99% in series [2] (37 °C, over 2 h).

In the case of `C[C@H](Nc1ccc(C#N)n(C)c1=O)c1cc2cc([125I])ccc2[nH]c1=O` [(S)-[^125I]2], the “RCP (stability)” value came out at 97.4% in series [1] (DPBS pH 7.4, room temperature, 3 h post formulation); 98.0% in series [1] (ethanolic solution eluted after C18 SPE cartridge, room temperature, 3 h post formulation); 97.2% in series [1] (formulation medium (saline, ca. 5% ethanol), room temperature, 3 h post formulation); 94.3% in series [2] (3 h at 37 °C).

Regarding `Cc1ccccc1C(C(=O)NC1CCCCC1)N(C(=O)Cn1ccnc1C)c1cccc([18F])c1` (stereo not shown) [III], in the series with mIDH1 (setting [3]), the IC50 was under 50 nM.

For the molecule `Cc1ccccc1C(C(=O)NC1CCCCC1)N(C(=O)n1cnc2ccccc21)c1cccc([18F])c1` (stereo not shown) [II], the IC50 in the series with mIDH1 (setting [3]) was under 50 nM.

With `Cc1ccccc1C(C(=O)NC1CCCCC1)N(C(=O)Cn1ccnc1C)c1cccc([125I])c1` (stereo not shown) [IV], the IC50 with mIDH1 (setting [3]) is under 50 nM.

Turning to `N#Cc1ccnc(N2C(=O)CCC2C(=O)N(c2cncc([18F])c2)C(C(=O)NC2CC(F)(F)C2)c2ccccc2Cl)c1` (stereo not shown) [I], the IC50 in the series with mIDH1 (setting [3]) was under 50 nM.

As to `CCCCc1ccc(NS(=O)(=O)c2ccc(C)c(C(=O)N3CCN(c4ccccc4OCC[18F])CC3)c2)cc1` [VII], the IC50 in the series on mIDH1 (setting [4]) is 2300 nM.

Take `CCCCc1ccc(NS(=O)(=O)c2ccc(C)c(C(=O)N3CCN(c4ccccc4[125I])CC3)c2)cc1` [VI]: in the series with mIDH1 (setting [4]), the IC50 is 1700 nM.
